Drawing on ChEMBL document CHEMBL1649211, “Diversity of beta-lactamases produced by ceftazidime-resistant Pseudomonas aeruginosa isolates causing bloodstream infections in Brazil” (2009), this text covers Activity and MIC for 6 molecules.

Common to all, as to type: functional
Test [1] relates to Pseudomonas aeruginosa. Briefly: Antimicrobial activity against ESBL- and MBL-producing and ceftazidime-resistant Pseudomonas aeruginosa isolated from patients with bloodstream infection assessed as resistant isolates by agar dilution method.
The test system of test [2] is Pseudomonas aeruginosa. Put plainly: Antimicrobial activity against beta-lactamase-producing Pseudomonas aeruginosa clinical isolate assessed as susceptible isolates by agar dilution method.
For test [3], the system named is Pseudomonas aeruginosa. Briefly: Antimicrobial activity against ESBL- and MBL-producing Pseudomonas aeruginosa isolated from patients with bloodstream infection assessed as resistant isolates by agar dilution method.
For test [4], the system named is Pseudomonas aeruginosa. Briefly: Antimicrobial activity against Pseudomonas aeruginosa clinical isolate overexpressing AmpC gene assessed as resistant isolates by agar dilution method.
The subject of test [5] is Pseudomonas aeruginosa. Put plainly: Antimicrobial activity against beta-lactamase-producing Pseudomonas aeruginosa clinical isolate by agar dilution method.
The test system of test [6] is Pseudomonas aeruginosa. Briefly: Antimicrobial activity against beta-lactamase-producing Pseudomonas aeruginosa clinical isolate assessed as susceptible isolate by agar dilution method in presence of beta-lactamase inhibitor Tazobactam.

For `C[C@@H](O)[C@H]1C(=O)N2C(C(=O)O)=C(S[C@@H]3CN[C@H](C(=O)N(C)C)C3)[C@H](C)[C@H]12` [MEROPENEM], the Activity with Pseudomonas aeruginosa [1] is listed as 95%.
As to COLISTIN, the Activity in the test with Pseudomonas aeruginosa [2] turned out to be 100%.
Take `CC(C)(O/N=C(\C(=O)N[C@@H]1C(=O)N2C(C(=O)[O-])=C(C[n+]3ccccc3)CS[C@H]12)c1csc(N)n1)C(=O)O` [CEFTAZIDIME]: the Activity was 28% in the test with Pseudomonas aeruginosa [3] and 9.3% with Pseudomonas aeruginosa [4].
`CCN1CCN(C(=O)N[C@@H](C(=O)N[C@@H]2C(=O)N3[C@@H]2SC(C)(C)[C@@H]3C(=O)O)c2ccccc2)C(=O)C1=O` [PIPERACILLIN]: the MIC against Pseudomonas aeruginosa [5] is ≤ 16 µg/mL. Moreover, the figures for the Activity with Pseudomonas aeruginosa [6] and in the test on Pseudomonas aeruginosa [2] were 39.5% and 34.8%, respectively.
As to `NCC[C@H](O)C(=O)N[C@@H]1C[C@H](N)[C@@H](O[C@H]2O[C@H](CN)[C@@H](O)[C@H](O)[C@H]2O)[C@H](O)[C@H]1O[C@H]1O[C@H](CO)[C@@H](O)[C@H](N)[C@H]1O` [AMIKACIN], the Activity in the test on Pseudomonas aeruginosa [2] stood at 18.6%.
For `C[C@@H](O)[C@H]1C(=O)N2C(C(=O)O)=C(SCCNC=N)C[C@H]12` [IMIPENEM ANHYDROUS], the Activity worked out at 82% with Pseudomonas aeruginosa [1] and 18.6% with Pseudomonas aeruginosa [2].
